# Measured values taken from patent publication US5948793A, “3-pyridyloxymethyl heterocyclic ether compounds useful in controlling neurotransmitter release” (Abbott Laboratories, priority 1995, dated 1999).
# Where a name gives a salt, the structure may show the parent alone. Read-outs that look alike come from different tables or passages of the source.
# Tests used:
# [1] = in vivo; cited from earlier work
# [2] = acutely- and chronically-administered; also observed in aged animals; cited from earlier work
# [3] = system: dopaminergic neurons; conditions: animals with induced brain injuries; cited from earlier work
# [4] = system: heart; conditions: in vivo; cited from earlier work
# [5] = cited from earlier work
# [6] = transdermal patches; cited from earlier work
# [7] = system: release of dopamine and acetylcholine; conditions: cited from earlier work
# [8] = system: nAChR evoked release of [3H]-dopamine, rat striatal slices; experiment: Striatal dopamine release assay (nAChR evoked release of [3H]-dopamine from superfused rat striatal slices); type: cell-based, rat (male Sprague-Dawley); conditions: Table 1, relative to 100 nM (-)-nicotine
# Method: The protocol for this procedure follows below.
# A. Protocol for Determination of Striatal Dopamine Release.
# nAChR evoked release of [ring-2,5,6-^3 H]-dopamine (24.4 Ci/mmol) was measured in superfused rat striatal slices. Striata were dissected from two male Sprague-Dawley rats per experiment and sliced 0.35×0.25 mm by a McIlwain Tissue Chopper (Brinkman Instrument Co., Westbury, N.Y.). After two washes with Krebs-HEPES buffer (137 mM NaCl, 4.7 mM KCl, 1 mM MgSO4, 2.5 mM CaCl2, 1.25 mM NaH2 PO4, 10 mM glucose, 15 mM HEPES-NaOH, pH 7.4, containing 10 μM pargyline and 10 μM ascorbic acid), slices were preincubated for 10 minutes at 37° C. under 95%/5% O2 /CO2. After replacing the buffer, slices were labeled with 100 nM [^3 H]-dopamine for 25 min in Krebs-HEPES at 37° C. Aliquots of slices were placed in 18 superfusion chambers of a Brandel SP2000 superfusion apparatus (Brandel, Gaithersberg, Md.). Following 47 minutes of washout, slices were exposed to agonist at various concentrations for 4 minutes. Antagonists or inhibitors, when present were introduced 4 minutes prior to and during agonist exposure. Collected fractions were counted in 5 mL of Ecolume. Tissue was recovered from superfusion chambers, solubilized with 1 mL of Solvable™ (DuPont-NEN) and counted in 15 mL of Ecolume. Fractional release of [^3 H]-dopamine was calculated from radioactivity above baseline as a fraction of total radioactivity.
# [9] = target: neuronal nicotinic cholinergic channel receptors; experiment: [3H]-cytisine displacement binding to neuronal nicotinic cholinergic channel receptors; type: rat (crude synaptic membranes from whole rat brain); conditions: read-out: Receptor Binding Ki
# Method: B. Protocol For Determination of Nicotinic Cholinergic Channel Receptor Binding Potencies of Ligands
# Binding of [^3 H]-cytisine ([^3 H]-CYT) to nicotinic receptors was accomplished using crude synaptic membrane preparations from whole rat brain (Pabreza et al., Molecular Pharmaol., 1990, 39:9). Washed membranes were stored at -80° C. prior to use. Frozen aliquots were slowly thawed and resuspended in 20 volumes of buffer (containing: 120 mM NaCl, 5 mM KCl, 2 mM MgCl2, 2 mM CaCl2 and 50 mM Tris-Cl, pH 7.4 @4° C.). After centrifuging at 20,000×g for 15 minutes, the pellets were resuspended in 30 volumes of buffer. Homogenate (containing […]) was added to triplicate tubes containing concentrations of test compound and [^3 H]-CYT (1.25 nM) in a final volume of 500 μL. Samples were incubated for 60 minutes at 4° C., then rapidly filtered through Whatman GF/B filters presoaked in 0.5% polyethylimine using 3×4 mL of ice-cold buffer. The filters are counted in 4 mL of Ecolume® (ICN). […] Alternately, data were expressed as a percentage of the total specific binding.
# [10] = system: cholinergic ligand-gated channels, PC12 cells; experiment: Cholinergic channel activation in PC12 cells (whole-cell patch-clamp); type: cell-based
# Text: D. Protocols for the Determination of Cholinergic Channel Activation in PC12 Cells.
# The cholinergic channel activator properties of Example 9 were investigated in PC12 cells using the whole-cell patch-clamp approach to measure current flow through ligand-gated membrane channels.
# [11] = example concentration * = 10 μM
# [12] = Table 1, [3H]-cytisine 1.25 nM, 60 min at 4° C.
# [13] = example concentration ** = 1 μM
# [14] = example concentration *** = 0.1 μ
Structure (SMILES),"Dopamine Release relative to Nicotine [8, 11]","Ki [9, 12] [nM]",Ki [9] [nM],other results
"CN1CCCC1c1cccnc1 (single isomer, unassigned; (-)) [(-)-nicotine]",–,–,–,sensory-gating impairments [1]: normalize sensory-gating impairments; cognitive function [2]: enhances cognitive function in rats; pre-synaptic loss of functional dopaminergic neurons [3]: can prevent pre-synaptic loss of functional dopaminergic neurons; cardiac workload and oxygen demand [4]: increasing cardiac workload and oxygen demand; oral bioavailability [5]: poor oral bioavailability; symptoms of ADD [6]: improve the symptoms of ADD; release of dopamine and acetylcholine [7]: enhance the release of dopamine and acetylcholine
"CN1CCC[C@@H]1COc1cccnc1.Cl [Example 1, 3-((1-methyl-2-(R)-pyrrolidinyl)methoxy)pyridine hydrochloride]",0.08,23,–,–
"CN1CCC[C@H]1COc1cccnc1.O=C(O)/C=C/C(=O)O [Example 4, 3-((1-methyl-2-(S)-pyrrolidinyl)methoxy)pyridine fumarate]",1.0,–,0.2,–
"CN1CC[C@H]1COc1cnccn1.Cl.Cl [Example 8, 2-((1-methyl-2-(S)-azetidinyl)methoxy)pyrazine dihydrochloride]",–,33,–,"Dopamine Release relative to Nicotine [8, 13]: 0.55"
"Cl.Cl.c1cncc(OC[C@@H]2CCN2)c1 [Example 9, 3-(2-(S)-azetidinylmethoxy)pyridine dihydrochloride]",1.0,0.05,–,cholinergic channel activator properties (current flow through ligand-gated channels) [10]: clear agonist activity
"CN1CC[C@H]1COc1cccnc1.Cl.Cl [Example 10, 3-((1-methyl-2-(S)-azetidinyl)methoxy)pyridine dihydrochloride]",1.0,–,0.25,–
"O=C(O)/C=C/C(=O)O.c1cncc(OC[C@@H]2CCCN2)c1 [Example 14, 3-(2-(S)-pyrrolidinylmethoxy)pyridine fumarate]",–,–,0.14,"Dopamine Release relative to Nicotine [8, 13]: 1.0"
"CN1CCC[C@H]1COc1cncc(Cl)c1.Cl.Cl [Example 16, 5-chloro-3-((1-methyl-2-(S)-pyrrolidinyl)methoxy)pyridine dihydrochloride]",–,–,–,"Dopamine Release relative to Nicotine [8, 13]: 1.0"
"Cc1ccc(OC[C@@H]2CCCN2)cn1.Cl.Cl [Example 18, 6-methyl-3-(2-(S)-pyrrolidinylmethoxy)pyridine dihydrochloride]",–,–,0.28,"Dopamine Release relative to Nicotine [8, 14]: 1.0"
"Cc1ccc(OC[C@@H]2CCCN2C)cn1.Cl.Cl [Example 19, 6-methyl-3-((1-methyl-2-(S)-pyrrolidinyl)methoxy)pyridine dihydrochloride]",–,–,1.47,"Dopamine Release relative to Nicotine [8, 14]: 0.78"
"CN1CCC[C@H]1COc1cnc2ccccc2c1.Cl [Example 31, 3-(1-methyl-2-(S)-pyrrolidinylmethoxy)quinoline hydrochloride]",0.15,0.7,–,–
"Cl.Cl.Clc1cncc(OC[C@H]2CCCN2)c1 [Example 33, 5-chloro-3-(2-(R)-pyrrolidinylmethoxy)pyridine dihydrochloride]",–,0.2,–,"Dopamine Release relative to Nicotine [8, 13]: 0.62"
"Cc1ccc(OC[C@H]2CCCN2)cn1.Cl.Cl [Example 37, 6-methyl-3-(2-(R)-pyrrolidinylmethoxy)pyridine dihydrochloride]",0.8,–,0.5,–
"CCN1CCC[C@H]1COc1cccnc1.Cl.Cl [Example 38, 3-((1-ethyl-2(S)-pyrrolidinyl)methoxy)pyridine dihydrochloride]",0.6,–,13,–
"Cc1ccncc1OC[C@@H]1CCCN1C.Cl.Cl [Example 46, 4-methyl-3-((1-methyl-2-(S)-pyrrolidinyl)methoxy)pyridine dihydrochloride]",0.85,4,–,–
"Clc1ccc(OC[C@@H]2CCN2)cn1 [Example 52, 3-(2-(S)-azetidinylmethoxy)-6-chloropyridine dihydrochloride]",1.0,0.04,–,–
"Cc1ccc(OC[C@@H]2CCN2C)cn1.Cl.Cl [Example 59, 3-((1-methyl-2-(S)-azetidinyl)methoxy)-6-methylpyridine dihydrochloride]",0.7,4.5,–,–
C[C@H](N)Cc1ccccc1 [d-amphetamine],–,–,–,release of dopamine and acetylcholine [7]: enhance the release of dopamine and acetylcholine
COC(=O)C(c1ccccc1)C1CCCCN1 (centres unmarked) [methylphenidate],–,–,–,release of dopamine and acetylcholine [7]: enhance the release of dopamine and acetylcholine
